Measurements from US10988477B2 (Merck Patent GmbH, priority 2018, dated 2021).

Each compound was assayed against GCN2 kinase (Homo sapiens, UniProt Q9P2K8) (assay: GCN2 enzyme inhibition assay (Transcreener ADP2 fluorescence polarization)). Conditions: Enzyme activity for compounds of Formula IV; Ki(app), 280 μM ATP, 25° C.
Type: biochemical
Outline: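 ADP formation read by Transcreener FP after a 1 h, 25 °C kinase reaction containing 280 μM ATP, 200 μM (RS)7 substrate and 4 nM GCN2, pH 7.5 Tris buffer. Compounds (0–8 μM final) were added 10 min before ATP. Percent inhibition gave IC50 and apparent Ki via tight-binding fit.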

GCN2 kinase, sequence (Q9P2K8 whole entry): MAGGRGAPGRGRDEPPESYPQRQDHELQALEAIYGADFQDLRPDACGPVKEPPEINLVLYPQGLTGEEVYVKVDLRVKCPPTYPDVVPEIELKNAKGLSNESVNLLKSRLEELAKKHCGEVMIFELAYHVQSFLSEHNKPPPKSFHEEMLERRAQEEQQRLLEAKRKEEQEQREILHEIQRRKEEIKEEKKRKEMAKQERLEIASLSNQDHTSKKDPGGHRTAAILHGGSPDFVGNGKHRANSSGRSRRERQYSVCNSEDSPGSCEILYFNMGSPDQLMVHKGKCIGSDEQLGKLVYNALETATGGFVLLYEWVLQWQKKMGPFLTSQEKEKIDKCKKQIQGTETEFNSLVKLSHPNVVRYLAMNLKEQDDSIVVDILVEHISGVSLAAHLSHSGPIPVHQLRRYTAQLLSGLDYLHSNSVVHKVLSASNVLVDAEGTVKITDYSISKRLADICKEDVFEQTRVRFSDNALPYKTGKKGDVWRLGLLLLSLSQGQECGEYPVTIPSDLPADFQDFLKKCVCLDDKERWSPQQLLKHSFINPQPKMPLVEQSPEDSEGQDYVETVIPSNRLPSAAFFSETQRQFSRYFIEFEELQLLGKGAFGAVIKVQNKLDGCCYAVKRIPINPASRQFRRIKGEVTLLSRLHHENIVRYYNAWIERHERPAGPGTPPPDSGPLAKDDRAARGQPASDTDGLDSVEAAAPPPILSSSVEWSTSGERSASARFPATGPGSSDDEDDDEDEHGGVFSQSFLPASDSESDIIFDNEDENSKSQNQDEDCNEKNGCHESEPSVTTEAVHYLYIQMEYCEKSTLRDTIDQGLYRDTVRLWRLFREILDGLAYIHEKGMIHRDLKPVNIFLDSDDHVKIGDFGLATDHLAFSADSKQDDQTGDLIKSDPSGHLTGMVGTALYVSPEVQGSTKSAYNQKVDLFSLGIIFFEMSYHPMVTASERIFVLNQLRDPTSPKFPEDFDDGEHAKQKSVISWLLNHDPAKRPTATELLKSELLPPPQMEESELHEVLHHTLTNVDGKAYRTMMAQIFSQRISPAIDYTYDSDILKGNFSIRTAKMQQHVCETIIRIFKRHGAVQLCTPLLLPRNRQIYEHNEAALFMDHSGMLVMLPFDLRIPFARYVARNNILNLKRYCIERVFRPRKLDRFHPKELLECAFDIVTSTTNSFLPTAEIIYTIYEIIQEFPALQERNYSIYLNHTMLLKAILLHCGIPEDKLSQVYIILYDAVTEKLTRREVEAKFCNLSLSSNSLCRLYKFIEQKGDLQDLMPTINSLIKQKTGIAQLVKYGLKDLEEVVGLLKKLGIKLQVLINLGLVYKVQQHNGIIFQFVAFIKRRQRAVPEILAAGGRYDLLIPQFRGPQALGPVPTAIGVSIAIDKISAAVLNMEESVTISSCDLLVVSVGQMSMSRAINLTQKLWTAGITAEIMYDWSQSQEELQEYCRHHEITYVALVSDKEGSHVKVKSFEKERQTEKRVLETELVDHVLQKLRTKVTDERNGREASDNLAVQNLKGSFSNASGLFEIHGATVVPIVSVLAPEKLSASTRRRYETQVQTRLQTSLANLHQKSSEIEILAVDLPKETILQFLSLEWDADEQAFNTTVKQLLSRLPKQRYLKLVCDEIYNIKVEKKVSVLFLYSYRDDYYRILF

Structure (SMILES)	Ki
O=S1(=O)CCC2CN(c3ccnc(-c4cnc5cnc(C(F)(F)F)cn45)n3)CC21 (stereo not drawn) [IV-570, 5-(2-(6-(Trifluoromethyl)imidazo[1,2-a]pyrazin-3-yl)pyrimidin-4-yl)hexahydro-2H-thieno[2,3-a]pyrrole 1,1-dioxide]	100 to 1000 nM
N#CC1CN(c2ccnc(-c3cnc4cnc(C(F)(F)F)cn34)n2)CCO1 (stereo not drawn) [IV-726]	> 1000 nM
FC(F)(F)c1cn2c(-c3nccc(N4CCC(C5CCCC5)C4)n3)cnc2cn1 (stereo not drawn) [IV-644, 3-(4-(3-Cyclopentylpyrrolidin-1-yl)pyrimidin-2-yl)-6-(trifluoromethyl)imidazo[1,2-a]pyrazine]	100 to 1000 nM
O=C1NC(=O)C2(CCN(c3ccnc(-c4cnc5cnc(C(F)(F)F)cn45)n3)C2)N1 (stereo not drawn) [IV-560, 7-(2-(6-(Trifluoromethyl)imidazo[1,2-a]pyrazin-3-yl)pyrimidin-4-yl)-1,3,7-triazaspiro[4.4]nonane-2,4-dione]	100 to 1000 nM
OCCn1cc(-c2ccnc(-c3cnc4cnc(C(F)(F)F)cn34)n2)cn1 [IV-431, 2-(4-(2-(6-(Trifluoromethyl)imidazo[1,2-a]pyrazin-3-yl)pyrimidin-4-yl)-1H-pyrazol-1-yl)ethan-1-ol]	100 to 1000 nM
FC(F)(F)c1cn2c(-c3nccc(N4CCCC(c5cc(C(F)(F)F)[nH]n5)C4)n3)cnc2cn1 (stereo not drawn) [IV-653, 6-(Trifluoromethyl)-3-(4-(3-(5-(trifluoromethyl)-1H-pyrazol-3-yl)piperidin-1-yl)pyrimidin-2-yl)imidazo[1,2-a]pyrazine]	100 to 1000 nM
CC1C(c2cn[nH]c2)NCCN1c1ccnc(-c2cnc3cnc(Cl)cn23)n1 (single isomer, unassigned) [IV-229, 6-Chloro-3-(4-(2-methyl-3-(1H-pyrazol-4-yl)piperazin-1-yl)pyrimidin-2-yl)imidazo[1,2-a]pyrazine]	100 to 1000 nM
NC(=O)c1cn2c(-c3nccc(N4CCC(CO)CC4)n3)cnc2cn1 [IV-243, 3-(4-(4-(Hydroxymethyl)piperidin-1-yl)pyrimidin-2-yl)imidazo[1,2-a]pyrazine-6-carboxamide]	10 to 100 nM
CC1CN(c2nc(-c3cnc4cnc(C(F)(F)F)cn34)ncc2F)CC(c2cn[nH]c2)O1 (single isomer, unassigned) [IV-335, 4-(5-Fluoro-2-(6-(trifluoromethyl)imidazo[1,2-a]pyrazin-3-yl)pyrimidin-4-yl)-2-methyl-6-(1H-pyrazol-4-yl)morpholine]	10 to 100 nM
FC(F)(F)c1cn2c(-c3nccc(N4CCC[C@H](c5c[nH]cn5)C4)n3)cnc2cn1 [IV-707]	10 to 100 nM
Cc1cn2c(-c3nccc(N4CCO[C@H](CNS(C)(=O)=O)C4)n3)cnc2cn1 [IV-47, (S)—N-((4-(2-(6-Methylimidazo[1,2-a]pyrazin-3-yl)pyrimidin-4-yl)morpholin-2-yl)methyl)methanesulfonamide]	100 to 1000 nM

Same assay, conditions: compounds of Formula II; 280 μM ATP, 4 nM GCN2 kinase

Structure (SMILES)	Ki
COCCOC1CC(CNS(C)(=O)=O)CN(c2cc(-c3cnc4ccc(C(F)F)nn34)ncn2)C1 (stereo not drawn) [II-549, N-((1-(6-(6-(Difluoromethyl)imidazo[1,2-b]pyridazin-3-yl)pyrimidin-4-yl)-5-(2-methoxyethoxy)piperidin-3-yl)methyl)methanesulfonamide]	10 to 1000 nM
CC1CC(N=S(C)(C)=O)CN(c2cc(-c3cnc4ccc(C(F)F)nn34)ccn2)C1 (stereo not drawn) [II-691, ((1-(4-(6-(Difluoromethyl)imidazo[1,2-b]pyridazin-3-yl)pyridin-2-yl)-5-methylpiperidin-3-yl)imino)dimethyl-λ^6-sulfanone]	10 to 1000 nM
CC1C(CO)N(C(C)(C)C)CCN1c1cc(-c2cnc3ccc(C(F)F)nn23)ncn1 (stereo not drawn) [II-43, (1-(tert-Butyl)-4-(6-(6-(difluoromethyl)imidazo[1,2-b]pyridazin-3-yl)pyrimidin-4-yl)-3-methylpiperazin-2-yl)methanol]	> 1000 nM
CC1CC(N=S(C)(=O)C2CC2)CN(c2cc(-c3cnc4ccc(C(F)F)nn34)ncn2)C1 (single isomer, unassigned) [II-647, Cyclopropyl((1-(6-(6-(difluoromethyl)imidazo[1,2-b]pyridazin-3-yl)pyrimidin-4-yl)-5-methylpiperidin-3-yl)imino)(methyl)-λ^6-sulfanone]	10 to 1000 nM
